# Measurements as given in US20030022241A1, “Methods” (priority 2001, published 2003).
# Target: native MNK-2B (Homo sapiens, UniProt Q9HBH9)
# Assay: NMR screening (Saturation Transfer Difference) for compounds binding Mnk2b
# Details: screen: 1 μM native MNK-2B, 200 μM compound mixture; confirmation: 2 μM native Mnk2B, 250 μM individual compound; pH 7.5, 20° C.
# Source text: A diversity library consisting of relatively small and highly water-soluble compounds was used to screen native MNK-2B for binders by NMR (Nuclear Magnetic Resonance). The NMR tecinique used to identify binders was Saturation Transfer Difference (STD): the protein ^1H resonances are saturated by means of a weak radio-frequency field applied to a narrow spectral region. The saturation is transferred by spin diffusion to the rest of the protein and subsequently further to compounds that bind to the protein attenuating their signals in the NMR spectrum. The spectrum is then subtracted from a spectrum obtained at non-saturating conditions to obtain an STD spectrum showing only the signals from compounds interacting with the protein. In practice the pulse sequence is written in such a way that the subtraction is done automatically in every other scan, i.e. the individual spectra are never observed (Mayer & Meyer, Angew. Chem. Int. Ed., 38, 1784-1788, 1999).
# The compounds in the library are divided into mixtures consisting of 4-8 compounds each. Each sample contained 1 μM native MNK-2B, 200 μM compound mixture, 50 mM sodium phosphate buffer, 1 mM DTT, pH 7.5 in ca 98% D2O/2% H2O. […] The volume was 600 μl and standard NMR tubes were used. […] A reference ^1H 1D experiment and an STD experiment were recorded on each sample. […]
# native MNK-2B, sequence (Q9HBH9 1-414 isoform Q9HBH9-2): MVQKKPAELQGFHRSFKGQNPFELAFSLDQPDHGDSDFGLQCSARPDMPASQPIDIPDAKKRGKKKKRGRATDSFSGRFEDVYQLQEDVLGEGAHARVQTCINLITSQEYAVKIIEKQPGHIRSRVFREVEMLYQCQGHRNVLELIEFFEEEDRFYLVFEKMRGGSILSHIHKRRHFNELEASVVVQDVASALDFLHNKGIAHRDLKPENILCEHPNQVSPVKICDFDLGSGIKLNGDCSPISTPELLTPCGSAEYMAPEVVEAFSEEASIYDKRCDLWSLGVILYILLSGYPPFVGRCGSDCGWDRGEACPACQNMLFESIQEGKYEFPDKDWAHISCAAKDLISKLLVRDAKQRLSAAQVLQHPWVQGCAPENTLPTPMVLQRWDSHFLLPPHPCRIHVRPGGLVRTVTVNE
structure (smiles),measurement,value
COC(=O)c1ccc(O)cc1 [4-hydroxy-benzoic acid methyl ester],binding to Mnk2b by STD NMR (identified as ligand),identified as Mnk2b ligands
